Common to all, as to type: in vivo, C57BL/6 mice
In assay [1] the test system is desiccating stressed-mice. Briefly: PAS staining of goblet cells in conjunctival epithelium, therapeutic treatment. The note with it: 14 days in CEC, then eye drops for 7 days; for number of goblet cells in PAS-stained sections, observation in words, FIG. 5A: peptides 100 μM. Here is the method: (§1) C57BL/6 mice (7-8 weeks old, each weighted about 18 to 25 g) were used in the present study. All mice were maintained in the animal facility in accordance with the procedures approved by Mackay Memorial Hospital Review Board (Taiwan, R.O. C.). All animal experimental procedures were conducted according to the ARVO Statement for the Use of Animals in Ophthalmic and Vision Research.
(§2) Dry eyes were induced by placing mice in a controlled environment chamber (CEC) in accordance with procedures previously described by Barabino et al (IVOS (2005) 46(8), 2766-2771). Mice placed in the CEC were exposed to a relative humidity (RH)<25%, temperature of 20 to 22° C., and airflow of 15 L/min, 12 hours per day. Control mice were kept in a normal environment (RH >50%, no air flow, temperature of 21-23° C.) for the same duration.
After animals were euthanized, eyes were surgically excised, fixed in 10% formalin, paraffin embedded, and cut into 5-μm sections. […] Statistics
Dry eye was created by housing the test animals in CEC for 14 days in accordance with procedures described in the “material and method” section. After confirmation of signs of DED by fluorescein stain (FIG. 3A; upper panel; day 14), animals were then removed from the CEC and placed in the normal environment (day 15), then started treatment by administering eye drop containing 1% CMC, 1% dexamethasone (Dex), 7-mer (100 μM), or 7-mer (ΔS) (100 μM) for 7 days (FIG. 3A; lower panel; day 21; and FIG. 3B).

Assay [2] has as its system desiccating stressed-mice. Nature of the assay: Tear production (phenol red thread), prophylactic treatment in desiccating stress-induced dry eye model. The note with it: peptide 100 μM topically three times daily for 14 days in CEC; vehicle control 3.7±0.25. The protocol:
as §1, §2
Tear production was measured by phenol red-impregnated cotton threads (Zone-Quick; Oasis, Glendora, Calif.). The validity of this test in mice was performed in accordance with procedures previously described by Dursun et al. (IVOS (2002) 43, 632-638). The threads were held with jeweler forceps and placed in the lateral canthus for 60 seconds. The tear production expressed in millimeters of thread wet by the tear and turned red.
(§3) Dry eye was created in mice using a controlled environmental chamber (CEC) in accordance with procedures described in the “material and method” section. Treatment was started on the first day when the mice were housed in CEC, in which the present synthetic peptide (i.e., 7-mer, 100 μM), peptide vehicle (1% CMC), or peptides derived from 7-mer (i.e., 7-mer-ΔD, 7-mer-ΔS, 7-mer (V→L) and 7-mer (VR→QK), 100 μM) were topically administered to eyes three times daily for 14 days. The peptides 7-mer-ΔD (LYRVRS, SEQ ID NO: 6) and 7-mer-ΔS (DLYRVR, SEQ ID NO: 7) represented peptides with one amino acid residue respectively deleted from 5-end (D; Aspartic acid) and 3′-end (S; Serine) of 7-mer, and were used as negative control peptides. In addition, the effects of single and double amino-acid substitution at 7-mer that generate 7-mer (V→L) and 7-mer (VR→QK) were also used to treat dry eye.
The protective effects of 7-mer and its derivatives on DED were also evaluated by measuring tears produced by the test animals, and results are depicted in FIG. 2.

The test system of assay [3] is desiccating stressed-mice. Briefly: Corneal fluorescein staining, therapeutic treatment of desiccation stress-induced dry eye. Conditions: 14 days in CEC, then eye drops for 7 days in normal environment (day 21); peptides 100 μM; 1% CMC control 3.6±0.26. The protocol:
as §1, §2
Animals were anesthetized by an intraperitoneal injection of a mixture of zoletil (6 mg/kg) and xylazine (3 mg/kg). Corneal epithelial injury was determined by staining with topical fluorescein (Fluor-I-Strip, Ayerst Laboratories, Philadelphia, Pa.). Corneal fluorescein staining was examined with a slit-lamp biomicroscope under cobalt blue light and photographed with a digital camera. Data is presented as mean±SD. […]

Assay [4] concerns desiccating stressed-mice. Nature of the assay: Corneal fluorescein staining, prophylactic treatment in desiccating stress-induced dry eye (CEC) model. Conditions: for biological function towards DED (summary statement): deletion peptides of SEQ ID NO: 2; for corneal fluorescein staining (score), FIG. 1B: peptide 100 μM topically to eyes three times daily for 14 days, started first day in CEC, 1% CMC vehicle 3.8±0.31. Here is the method:
as §1, §2
Animals were anesthetized by an intraperitoneal injection of a mixture of zoletil (6 mg/kg) and xylazine (3 mg/kg). Corneal epithelial injury was determined by staining with topical fluorescein (Fluor-I-Strip, Ayerst Laboratories, Philadelphia, Pa.). Corneal fluorescein staining was examined with a slit-lamp biomicroscope under cobalt blue light and photographed with a digital camera. Data is presented as mean±SD. The number of fluorescein staining dots were graded in the 1-mm central cornea zone of each eye, on a standardized five-point scale (0 dot, grade 0; 1-5 dots, grade 1; 6-15 dots, grade 2; 16-30 dots, grade 3; 30 dots, grade 4). One point was added to the score if there was one area of confluent staining, and two points were added for two or more areas of confluence. (Li J et al., Mole Visions 2012, 18, 317)
as §3
Fluorescein staining was used to assess changes in corneal epithelial integrity, and results are illustrated in FIGS. 1A and 1B. FIG. 1A are photographs taken on dry eyes respectively treated with the 1% CMC vehicle, 7-mer and its derivates; and FIG. 1B gives the quantitative analysis of FIG. 1A.

Assay [5] concerns desiccating stressed-mice. Briefly: Corneal epithelial histopathology (H&E), detached superficial apical cells, therapeutic treatment. Conditions: 14 days in CEC, then eye drops for 7 days, peptides 100 μM; for detached superficial apical cells on H&E stained cornea sections, observation in words, FIG. 4A: 0.1% Dex; for detached superficial apical cells (number), FIG. 4B: 1% CMC control 14±1.06. Here is the method:
as §1, §2
The corneal epithelial damage was assessed as described previously (Pflugfelder et al., 2005, Am J Pathol 166, 61-71). In brief, the number of detaching apical cells was counted from a full microscope field-of vision from three separate tissue sections, by two independent masked observers, using a 20 objective. Three mice were evaluated in each treatment
Dry eye was created by housing the test animals in CEC for 14 days in accordance with procedures described in the “material and method” section. After confirmation of signs of DED by fluorescein stain (FIG. […] 3A; lower panel; day 21; and FIG. 3B).

For “DLYRVR [7-mer (ΔS), negative control peptide, 7-mer with C-terminal serine deleted]”, in assay [1], the “number of goblet cells in PAS-stained sections, observation in words, FIG. 5A” value is given as “significant reduction in the number of goblet cells”. Further, the “tear production (thread wet by the tear), FIG. 2” value (from here on “tear production”) in assay [2] was “neither 7-mer (ΔD) nor 7-mer (ΔS) peptides possessed such effect”. Besides, the “corneal fluorescein staining score, FIG. 3B” value in assay [3] is “no therapeutic effect”. In assay [4], the “biological function towards DED (summary statement)” value is listed as “do not possess any biological function towards DED” and the “corneal fluorescein staining (score), FIG. 1B” value is “no such effect”. Besides, in assay [5], the “detached superficial apical cells on H&E stained cornea sections, observation in words, FIG. 4A” value is recorded as “Detached superficial apical cells were identified” and the “detached superficial apical cells (number), FIG. 4B” value turned out to be 13.8±1.03.

On to “LYRVRS [7-mer (ΔD), negative control peptide, 7-mer with N-terminal aspartate deleted]”, for which the “tear production” value in assay [2] is listed as “neither 7-mer (ΔD) nor 7-mer (ΔS) peptides possessed such effect”. Also, in assay [4], the “biological function towards DED (summary statement)” value is on record as “do not possess any biological function towards DED” and the “corneal fluorescein staining (score), FIG. 1B” value is reported as “no such effect”.

For the substance “DLYRLRS [7-mer (V→L), NH2-Asp-Leu-Tyr-Arg-Leu-Arg-Ser-COOH]”, the “tear production” value in assay [2] amounted to 5.0±0.16 millimeters.

On to “DLYRQKS [7-mer (VR→QK), NH2-Asp-Leu-Tyr-Arg-Gln-Lys-Ser-COOH]”, for which, in assay [2], the “tear production” value amounted to 4.9±0.15 millimeters.

For the substance “DLYRVRS [7-mer, NH2-Asp-Leu-Tyr-Arg-Val-Arg-Ser-COOH]”, the “goblet cells (number), FIG. 5B” value in assay [1] (7-mer 100 μM, 1% CMC control 7.5±0.96) is recorded as 12.7±1.28. In addition, the “number of goblet cells in PAS-stained sections, observation in words, FIG. 5A” value in assay [1] was “relatively the same as that of the normal healthy mice”. Moreover, the “tear production” value in assay [2] worked out at 5.1±0.21 millimeters. For the same substance, in assay [3], the “corneal fluorescein staining score, FIG. 3B” value is given as 1.5±0.18. Also, the “corneal fluorescein staining (score), FIG. 1B” value in assay [4] is recorded as 1.3±0.21. In assay [5], the “detached superficial apical cells on H&E stained cornea sections, observation in words, FIG. 4A” value is “no detached cells were found” and the “detached superficial apical cells (number), FIG. 4B” value came to 2.1±0.37.

(Values after US20180339010A1, “USE OF SHORT SYNTHETIC PEPTIDE FOR THE TREATMENT AND/OR PROPHYLAXIS OF DRY EYE DISEASE” (priority 2015, published 2018).)
